Values belong to the compound of their own block, whether it stands above or below them.
How the values were obtained:
mice [1] = assay: Maximal Electroshock Seizure (MES) test, mice i.p.; assay type: in vivo; conditions: for activity in the MES test: mice, at 100 mg/kg
SMN2 promoter = SMN2 promoter β-lactamase reporter assay in NSC34 motor neuron-like cells; assay type: cell-based; conditions: for SMN2 promoter assay, particularly strong hits: NSC34 BLA reporter cells; for Promoter (SMN2 promoter test, summary YES/NO): Table 13 summary; for SMN2 promoter activity: treatment for 19 hours at a concentration of 1 μM
Procedure: FIG. 30 illustrates a screen for SMN2 expression of a number of compounds described herein.
SMN2 promoter activity was measured using NSC34 motor neuron-like cells stably transfected with a β-lactamase (BLA) reporter gene under the control of a 3.4-kilobase fragment of the SMN2 promoter. D156844 was used as a positive control for this assay.

[2] = tested on: inclusion of exon 7 in SMN2 mRNAs; assay: Exon 7 inclusion BLA reporter assay in NSC34 cell line; assay type: cell-based
Source text: To measure changes in the inclusion of exon 7 in SMN2 mRNAs, another NSC34 cell line was used that stably transfected with a reporter construct which expresses BLA when exon 7 is included in the SMN2 minigene mRNAs. 5-(N-ethyl-N-isopropyl)-amiloride (EIPA) was used as a positive control for this assay. Data for tis assay is illustrated in FIG. 30.

mice [3] = assay: Minimal motor impairment (MID50), mice i.p.; conditions: mice i.p.; 100 mg/kg @ 0.5 hr
rats [4] = assay: Pilocarpine-induced Status Epilepticus in Rats (prevention; intervention @ 30 min); conditions: Rattus norvegicus
rats [5] = assay: MES test, rats p.o.; assay type: in vivo; conditions: at 30 mg/kg
mice [6] = assay: Subcutaneous Metrazol Seizure threshold (s.c. MET) test, mice i.p.; assay type: in vivo; conditions: for activity in the s.c. MET test: mice
mice [7] = assay: 6 Hz (minimal clonic seizure) model, mice i.p.; assay type: in vivo; conditions: for activity in the 6 Hz (minimal clonic seizure) model: mice, at 100 mg/kg; for 6 Hz (32 mA), fraction of animals: mice i.p.
[8] = tested on: rat dopaminergic N27 cells; assay: N27 protection assay against oxidative stress (H2O2 or MPP+; MTT and LDH); assay type: cell-based; conditions: drug 24 hours before 200 μM H2O2 or 640 μM MPP+
Source text: FIGS. 20A-25D data are shown illustrating neuroprotective and neuroregenerative effects observed in rat dopaminergic N27 cells. Rat dopaminergic N27 cells are commonly used in in vitro and in vivo model systems for studying Parkinson's disease. Parkinson's disease is a neurodegenerative disorder of the central nervous system that affects more than 6 million people worldwide. The motor symptoms of Parkinson's disease result from the death of dopamine generating cells in the substantia nigra, a region of the midbrain.
The N27 rat dopaminergic neuron cell line was harvested from E12 rat mesencephalic tissue and was transfected with SV40 to immortalize the cell line. The N27 cell line, when injected into the striata of 6-hydroxydopamine-lesioned rats (an animal model of PD) caused a time-dependent improvement in neurological deficits. This immortalized cell line has been carefully characterized in studies of dopamine biosynthesis, neurotoxicity and used as a dopaminergic neuron model studies.
The N27 in vitro Parkinson's disease model included a test of cell viability and cell toxicity in response to exposure to oxidative stress (e.g., either 200 μM H2O2 or 640 μM MPP+).
Cell viability was tested using the MTT assay. The MTT assay is a colorimetric analysis based on the activities of mitochondrial NAD(P)H-dependent cellular oxidoreductase enzymes. These enzymes are capable of reducing the tetrazolium dye, MTT [3-(4,5-dimethylthiazol-2-yl)-2,5-diphenyltetrazolium] bromide, to an insoluble formazan (purple). […] More viable cells equal more accumulation of the insoluble formazan dye.
Cell toxicity was tested using the […] (LDH) assay. Cells that are stressed secrete LDH. In general, the more cells are stressed, the LDH they secrete into their media. The LDH assay is a reliable colorimetric assay to measure quantitatively the […] (LDH) that is released into the cell culture media from damaged cells as a biomarker for cytotoxicity and cytolysis.
FIGS. 20A-25D present data from two types of assays: protection and recovery assays. In the protection assays, the drug candidate was applied to the cells at various concentrations for 24 hours, followed by the exposure to oxidative stress (either 200 μM H2O2 or 640 μM MPP+) for measuring neuroprotective effect. H2O2 provides a broad measure of oxidative stress, while MPP+ gives a more specific oxidative stress to dopaminergic neurons.
The protection assay results are shown in panels A-C of FIGS. 20-25 In the recovery assays, the cells were first damaged by exposure to H2O2 and then various concentrations of the drug were applied to the cells. The results for the recovery assays are shown the D panels of FIGS. 20-25.

in vivo = conditions: mouse, ip
[9] = tested on: type II SMA fibroblasts (GM03813); assay: SMN protein localization, gem counting in type II SMA fibroblasts; assay type: cell-based; conditions: 100 nM-10 μM, 5 days
Procedure: To validate the SMN2 promoter and exon 7 screens, the effects of compounds H, H (acid form), AY, F, BX, and BY were evaluated on the basis of expression and localization of SMN protein in type II SMA fibroblasts (GM03813). In a normal cell, SMN protein localized within the nucleus to discreet foci known as gems. In SMN-deficient SMA cells, the number of gems is greatly diminished. Although the function of gems is unknown, it is believed that they are somehow involved in the snRNP assembly function of SMN. Gem counting can, therefore, be considered an assay for SMN function.
GM03813 fibroblasts were treated with different doses (100 nM-10 μM) of compounds H, H (acid form), AY, F, BX, and BY for 5 days. SMN immunostaining was then completed on these cells and the number of gems was counted in 100 randomly-selected nuclei. […] In fact, the gem counts at the highest dose of compound H approach those observed for carrier fibroblasts (GM03814). When compared against treatment with 1 μM D157495—a D156844 derivative, all of the compounds tested performed as well as or, even better than D157495.

mice [10] = assay: Corneal kindled mouse model; assay type: in vivo; conditions: mice i.p.; 100 mg/kg @ 0.25 hr
[11] = NSC34 exon 7 BLA reporter cells
[12] = read-out: Prevention, Protection

MID50, fraction of animals (mice [3]): 5/8 @
Structure (SMILES): CC(CC(N)=O)c1ccccc1OC(F)(F)F (centres unmarked) [BU, 3-[2-(trifluoromethoxy)-phenyl]butyramide]
MES, fraction of animals (mice [1]; mice i.p., 100 mg/kg @ 0.5 hr): 3/3
MES, fraction of animals (mice [1]; mice i.p., 100 mg/kg @ 4.0 hr): 2/3
activity in the MES test (mice [1]): activity
SMN2 promoter assay, particularly strong hits (SMN2 promoter): Particularly strong hits
Promoter (SMN2 promoter test, summary YES/NO) (SMN2 promoter): YES
SMN2 promoter activity (SMN2 promoter): increased SMN2 promoter activity
effect on the inclusion of exon 7 in SMN2 transcripts [2, 11]: positive effect on the inclusion of exon 7
exon 7 test, particularly strong hits [2, 11]: Particularly strong hits
Exon 7 inclusion (summary YES/NO) ([2]; Table 13 summary): YES
responders at 127 mg/kg (rats [4]; 0.5 h, read-out: Intervention @ 30 min, Protection): 50%
responders at 65 mg/kg (rats [4]; [12]): 100%

Structure (SMILES): CC(CC(N)=O)c1ccc(Cl)cc1 (centres unmarked) [BV, 3-[4-chloro-phenyl]butyramide]
MES, fraction of animals (mice [1]; mice i.p., 100 mg/kg @ 0.5 hr): 2/3 @
activity in the MES test (mice [1]): activity
activity in the MES test (rats [5]): activity

Structure (SMILES): CCC(CC(N)=O)c1ccc(C(F)(F)F)cc1 (centres unmarked) [Compound AA, 3-(4-Trifluoromethylphenyl)-pentanamide]
ED50 (mice [1]; Mus musculus, ip, mice i.p., @ 0.5 hrs): 86.6 mg/kg
activity in the MES test (mice [1]): activity
ED50 (mice [6]; Mus musculus, mice i.p., @ 0.5 hrs): 149 mg/kg
activity in the s.c. MET test (mice [6]; at 300 mg/kg): activity
activity in the 6 Hz (minimal clonic seizure) model (mice [7]): activity
activity in the MES test (rats [5]): activity
neuroprotective effect against H2O2 and MPP+ oxidative stresses (MTT and LDH assays) [8]: statistically significant, dose-dependent neuroprotection
SMN2 promoter assay, particularly strong hits (SMN2 promoter): particularly strong hits
Promoter (SMN2 promoter test, summary YES/NO) (SMN2 promoter): YES
SMN2 promoter activity (SMN2 promoter): increased SMN2 promoter activity
TD50 at 0.25 hr (in vivo): 142 mg/kg

Structure (SMILES): CC(CC(N)=O)c1ccc(N2CCOCC2)cc1 (centres unmarked) [Compound AY, 3-(4-Morpholin-4-yl-phenyl)-butyramide]
6 Hz (32 mA), fraction of animals (mice [7]; 100 mg/kg @ 1.0 hr): 1/4
activity in the 6 Hz (minimal clonic seizure) model (mice [7]): activity
SMN2 promoter activity (SMN2 promoter): increased SMN2 promoter activity
gem counts (SMN immunostaining, 100 nuclei) [9]: increase gem counts in a dose-dependent manner
responders at 600 mg/kg (rats [4]; [12]): 38%

MID50, fraction of animals (mice [3]): 2/8 @0.5 hr
Structure (SMILES): CNC(=O)CC(C)(C)c1ccc(Cl)cc1 [Compound B, 3-(4-Chlorophenyl)-3,N-dimethylbutyramide]
neuroprotective effect against H2O2 and MPP+ oxidative stresses (MTT and LDH assays) [8]: potent dose-dependent neuroprotective effects
responders at 300 mg/kg (rats [4]; [12]): 43%

Structure (SMILES): NC(=O)CC(c1ccc(Cl)cc1)C1CC1 (centres unmarked) [X, 3-(4-Chloro-phenyl)-3-cyclopropyl-propionamide]
activity in the MES test (mice [1]): activity
activity in the s.c. MET test (mice [6]; at 300 mg/kg): activity
6 Hz (32 mA), fraction of animals (mice [7]; 75 mg/kg @ 1.0 hr): 4/4
6 Hz (32 mA), fraction of animals (mice [7]; 75 mg/kg @ 2.0 hr): 2/4
6 Hz (32 mA), fraction of animals (mice [7]; 75 mg/kg @ 4.0 hr): 1/4 @
Corneal Kindled, Average seizure score (mice [10]): score is 3:
Corneal Kindled, fraction of animals (mice [10]): 2/4 @
activity in the MES test (rats [5]): activity
neuroprotective effect against H2O2 and MPP+ oxidative stresses (MTT and LDH assays) [8]: statistically significant, dose-dependent neuroprotection
Promoter (SMN2 promoter test, summary YES/NO) (SMN2 promoter): YES
SMN2 promoter activity (SMN2 promoter): increased SMN2 promoter activity

Structure (SMILES): NC(=O)CC(c1ccc(F)cc1)C1CC1 (centres unmarked) [Y, 3-Cyclopropyl-3-(4-fluoro-phenyl)propionamide]
activity in the MES test (mice [1]): activity
s.c. MET, fraction of animals (mice [6]; mice i.p., 100 mg/kg @ 0.5 hr): 2/5 @0.5 hrs,
activity in the s.c. MET test (mice [6]; at 100 mg/kg): activity
activity in the 6 Hz (minimal clonic seizure) model (mice [7]): activity
Corneal Kindled, Average seizure score (mice [10]): 0: (0, 0,
Corneal Kindled, fraction of animals (mice [10]): 4/4 @
SMN2 promoter activity (SMN2 promoter): increased SMN2 promoter activity
responders at 65 mg/kg (rats [4]; [12]): 88%

Source: patent publication US12486218B2, “Compounds advantageous in the treatment of central nervous system diseases and disorders” (AurimMed Pharma, Inc., priority 2008, dated 2025)
